Several values for one entry are separate records, joined by “and”; a condition that tells them apart may be missing. Equal entries are not always repeated.
Columns and labels:
Assay type in all cases: functional, Homo sapiens
U2OS [1] = test: (§1) Here: values are normalized to the negative (DMSO; defined as 0% autophagy induction) and positive (250nM Torin1; mTOR inhibitor; defined as maximal inducer of autophagy = 100%) control compounds and represented as % of autophagy induction. […] The impact of autophagy induction on cells is complex and depends on the affected target. As such, the magnitude of a phenotype may not be equally mirrored in the %-value of autophagy induction and vice versa. The dynamics of the induction may indicate the mode of activation: e.g. activation via phosphorylation or a signaling cascade may occur fast, while activation via transcription factors may take considerably longer. […] Of note, treatment concentrations may be sub-optimal for specific compounds, leading to false negative annotations.; details: Culturing Media DMEM, 1 % Penicillin/Streptomycin, 10% Fetal bovin serum Add-On: No, Screening Media Control DMEM, Screening Media Samples DMEM
U2OS [2] = test: as §1; details: Culturing Media DMEM, 1 % Penicillin/Streptomycin, 10% Fetal bovin serum Add-On: No, Screening Media Control DMEM, Screening Media Samples DMEM; remark: listed apart in the source
TERT-RPE1 = test: as §1; details: Culturing Media DMEM/F12 (1:1), 1 % Penicillin/Streptomycin, 10% Fetal bovin serum Add-On: No, Screening Media Control DMEM/F12 (1:1), Screening Media Samples DMEM/F12 (1:1)
[3] = Compound Concentration 0.5 uM, Timepoint 12 hours
[4] = Compound Concentration 0.5 uM, Timepoint 24 hours
[5] = Compound Concentration 0.5 uM, Timepoint 36 hours
[6] = Compound Concentration 0.5 uM, Timepoint 60 hours
[7] = Compound Concentration 2 uM, Timepoint 12 hours
[8] = Compound Concentration 2 uM, Timepoint 24 hours
[9] = Compound Concentration 2 uM, Timepoint 36 hours
[10] = Compound Concentration 2 uM, Timepoint 60 hours
[11] = Compound Concentration 10 uM, Timepoint 12 hours
[12] = Compound Concentration 10 uM, Timepoint 24 hours
[13] = Compound Concentration 10 uM, Timepoint 36 hours
[14] = Compound Concentration 10 uM, Timepoint 60 hours

Row | SMILES | autophagy induction (U2OS [1]; [3]) [%] | autophagy induction (U2OS [1]; [4]) [%] | autophagy induction (U2OS [1]; [5]) [%] | autophagy induction (U2OS [1]; [6]) [%] | autophagy induction (U2OS [1]; [7]) [%] | autophagy induction (U2OS [1]; [8]) [%] | autophagy induction (U2OS [1]; [9]) [%] | autophagy induction (U2OS [1]; [10]) [%] | autophagy induction (U2OS [1]; [11]) [%] | autophagy induction (U2OS [1]; [12]) [%] | autophagy induction (U2OS [1]; [13]) [%] | autophagy induction (U2OS [1]; [14]) [%] | autophagy induction (U2OS [2]; [3]) [%] | autophagy induction (U2OS [2]; [4]) [%] | autophagy induction (U2OS [2]; [5]) [%] | autophagy induction (U2OS [2]; [6]) [%] | autophagy induction (U2OS [2]; [7]) [%] | autophagy induction (U2OS [2]; [8]) [%] | autophagy induction (U2OS [2]; [9]) [%] | autophagy induction (U2OS [2]; [10]) [%] | further results
1 | C[C@@H](NCCc1ccc(O)cc1)[C@@H](O)c1ccc(O)cc1.Cl (relative stereo) | 14.7038 | 0.5598 | 0.6043 | -0.5871 | 18.1678 | -0.878 | -8.358 | -12.0518 | -0.9523 | -16.8429 | -21.0427 | -26.9578 | -6.804 | -1.218 | -57.9641 | 0.9422 | -7.529 | -0.8348 | -57.3104 | -0.1418 | autophagy induction (U2OS [2]; [11]): -2.903%; autophagy induction (U2OS [2]; [12]): -0.1533%; autophagy induction (U2OS [2]; [13]): -57.4385%; autophagy induction (U2OS [2]; [14]): 1.624%; autophagy induction (TERT-RPE1; Compound Concentration 0.5 uM, Timepoint 12 hours, 12 h, 0.5 µM): 5.631% and 0.2084%; autophagy induction (TERT-RPE1; Compound Concentration 0.5 uM, Timepoint 24 hours, 24 h, 0.5 µM): 6.073% and -4.011%; autophagy induction (TERT-RPE1; Compound Concentration 0.5 uM, Timepoint 36 hours, 36 h, 0.5 µM): 3.7656% and -2.603%; autophagy induction (TERT-RPE1; Compound Concentration 0.5 uM, Timepoint 60 hours, 60 h, 0.5 µM): -3.104% and -1.391%; autophagy induction (TERT-RPE1; Compound Concentration 2 uM, Timepoint 12 hours, 12 h, 2 µM): 5.905% and 3.931%; autophagy induction (TERT-RPE1; Compound Concentration 2 uM, Timepoint 24 hours, 24 h, 2 µM): 4.872% and 1.792%; autophagy induction (TERT-RPE1; Compound Concentration 2 uM, Timepoint 36 hours, 36 h, 2 µM): 4.017% and -0.1457%; autophagy induction (TERT-RPE1; Compound Concentration 2 uM, Timepoint 60 hours, 60 h, 2 µM): -2.448% and 5.167%; autophagy induction (TERT-RPE1; Compound Concentration 10 uM, Timepoint 12 hours, 12 h, 10 µM): -0.5838% and 12.3967%; autophagy induction (TERT-RPE1; Compound Concentration 10 uM, Timepoint 24 hours, 24 h, 10 µM): -3.853% and 16.5093%
2 | Cc1c(P(=S)(c2ccccc2)c2ccccc2)n2ccccc2[n+]1C/C=C/c1ccccc1.[Br-] | -3.655 | 0.9546 | -1.282 | 2.215 | -8.9 | -2.047 | 1.308 | 3.722 | 47.8904 | 55.2067 | 55.7211 | 73.829 | -4.037 | -2.741 | -2.914 | -1.509 | -1.2597 | -1.1621 | -2.341 | -2.536 | autophagy induction (U2OS [2]; [11]): -27.5654%; autophagy induction (U2OS [2]; [12]): -9.802%; autophagy induction (U2OS [2]; [13]): -1.3311%; autophagy induction (U2OS [2]; [14]): 3.649%; autophagy induction (TERT-RPE1; [3]): -3.105%; autophagy induction (TERT-RPE1; [4]): -8.592%; autophagy induction (TERT-RPE1; [5]): -12.0302%; autophagy induction (TERT-RPE1; [6]): -17.0508%; autophagy induction (TERT-RPE1; [7]): 2.878%; autophagy induction (TERT-RPE1; [8]): -0.5859%; autophagy induction (TERT-RPE1; [9]): 1.195%; autophagy induction (TERT-RPE1; [10]): -1.818%; autophagy induction (TERT-RPE1; [11]): 24.7841%; autophagy induction (TERT-RPE1; [12]): 51.8106%; autophagy induction (TERT-RPE1; [13]): 73.7567%; autophagy induction (TERT-RPE1; [14]): 96.4076%

Reference: ChEMBL document CHEMBL5724696, “Autophagy assay results for EUbOPEN Chemogenomics Library” (2024)
